# Results from patent publication US20180258123A1, “Suppressors of Premature Termination Codons as Therapeutics and Methods for Their Use” (The University of British Columbia, priority 2015, published 2018).
# Assays:
# [1] = cited from earlier work
# [2] = system: HDQ-P1 cells, full-length p53; test: p53 read-through assay with steroids (western blotting, FIG. 4); format: cell-based, human
# Protocol: HDQ-P1 cells were seeded at 100,000 cells per well of TC-treated 6-well plates. The next day, the medium was replaced with fresh medium containing compounds to be tested and were incubated for 48 to 96 h. The medium was removed by aspiration, cell monolayers were rinsed with 1 ml ice-cold PBS. Cells were lysed in 80 μl lysis buffer (20 mM Tris-HCl pH 7.5, 150 mM NaCl, 1 mM EDTA, 1 mM EGTA, 1% (v/v) Triton […], 2.5 mM sodium pyrophosphate, 1 mM beta-glycerophosphate supplemented with fresh 1 mM Na3VO4, 1 mM dithiothreitol and 1× complete protease inhibitor cocktail (Roche Molecular BiochemicalsTM)). Lysates were pre-cleared by centrifugation at 18,000 g for 15 min at 4° C. Supernatants were collected, protein was quantitated using the Bradford assay and lysates were adjusted to 1 mg/ml protein. Capillary electrophoresis and western analysis conditions were carried out with manufacturer's reagents according to the user manual (ProteinSimple WESTM). Briefly, 5.6 μl of cell lysate was mixed with 1.4 μl fluorescent master mix and heated at 95° C. for 5 min. The samples, blocking reagent, wash buffer, DO-1 p53 antibody (0.5 μg/ml) and vinculin antibody (1:2000, R&D clone 728526), secondary antibody and chemiluminescent substrate were dispensed into the microplate provided by the manufacturer. […] The data was analyzed with inbuilt CompassTM software (ProteinsimpleTM). […]
# [3] = Toxicity observed in the in vivo read-through study; conditions: 400 mg/kg intraperitoneal; mice sacrificed shortly after administration
# Protocol: Methods for FIG. 8: Two million NCI-H1299 human non-small cell lung carcinoma cells stably expressing a TP53 expression construct bearing the R213X (TGA) nonsense mutation were implanted subcutaneously on the lower back of immunocompromised NRG (NOD-Rag1^null IL2rg^null) mice. […] 48 hours after the last injection, the mice were sacrificed and the amounts of truncated p53 and full-length p53 were determined by western analysis. […] Vinculin was used as a protein loading control.
molecule,measurement,setting,value
CN[C@@H]1[C@@H](O)[C@@H](O[C@@H]2[C@@H](O)[C@H](O[C@H]3O[C@H]([C@@H](C)N)CC[C@H]3N)[C@@H](N)C[C@H]2N)OC[C@]1(C)O [Gentamicin C2],nephrotoxicity of the major gentamicins,[1]; Kohlhepp S. J. et al. 1984,nephrotoxicity was caused mainly by C2
"CC(=O)O[C@]1(C(C)=O)CC[C@H]2[C@@H]3C[C@H](C)C4=CC(=O)CC[C@]4(C)[C@H]3CC[C@@]21C [Medroxy pro, Medroxyprogesterone acetate]",read-through activity of steroid alone,[2],no read-through activity
Gentamicin [reference compound],toxicity,[3],induced acute toxicity
same,nephrotoxicity and ototoxicity,[1]; in vivo,nephrotoxic and ototoxic
